In PMC6016738 (European journal of medicinal chemistry, 2018):

Experiments:
E. coli DNA gyrase = E. coli DNA gyrase (Escherichia coli, UniProt P0AES6); test: E. coli DNA gyrase supercoiling assay
E. faecalis ATCC 29212 = test: Antibacterial activity; assay type: cell-based, Enterococcus faecalis; conditions: for inhibition at 50 µM: Enterococcus faecalis, ATCC29212, read-out: growth inhibition of E. faecalis
E. coli topoisomerase IV = E. coli topoisomerase IV (Escherichia coli, UniProt P20083); test: E. coli topoisomerase IV inhibition assay; conditions: for IC50: IC50 E. coli topo IV; for remaining activity at 1 µM: read-out: RA (residual activity) E. coli topo IV
S. aureus ATCC 25923 = test: Antibacterial activity; assay type: cell-based; conditions: Staphylococcus aureus, ATCC25923, read-out: growth inhibition of S. aureus
E. coli JW5503 ΔtolC = test: Antibacterial activity; assay type: cell-based, Escherichia coli; conditions: inhibitor concentration 50 μM
[1] = Growth inhibition of the bacterial panel at 50 μM; assay type: cell-based; conditions: read-out: growth inhibition of bacteria (all tested strains, Table 1S)
E. coli (ATCC 25922) = test: MIC broth micro-dilution; assay type: cell-based, Escherichia coli
E. coli (MG1655) = test: MIC broth micro-dilution; assay type: cell-based, Escherichia coli
E. coli (BW 25113) = test: MIC broth micro-dilution; assay type: cell-based, Escherichia coli
HepG2 cells = conditions: read-out: IC50 HepG2; literature value; cited from earlier work
HUVEC cells = conditions: read-out: IC50 HUVEC; literature value; cited from earlier work

E. coli topoisomerase IV, sequence (P20083 whole entry): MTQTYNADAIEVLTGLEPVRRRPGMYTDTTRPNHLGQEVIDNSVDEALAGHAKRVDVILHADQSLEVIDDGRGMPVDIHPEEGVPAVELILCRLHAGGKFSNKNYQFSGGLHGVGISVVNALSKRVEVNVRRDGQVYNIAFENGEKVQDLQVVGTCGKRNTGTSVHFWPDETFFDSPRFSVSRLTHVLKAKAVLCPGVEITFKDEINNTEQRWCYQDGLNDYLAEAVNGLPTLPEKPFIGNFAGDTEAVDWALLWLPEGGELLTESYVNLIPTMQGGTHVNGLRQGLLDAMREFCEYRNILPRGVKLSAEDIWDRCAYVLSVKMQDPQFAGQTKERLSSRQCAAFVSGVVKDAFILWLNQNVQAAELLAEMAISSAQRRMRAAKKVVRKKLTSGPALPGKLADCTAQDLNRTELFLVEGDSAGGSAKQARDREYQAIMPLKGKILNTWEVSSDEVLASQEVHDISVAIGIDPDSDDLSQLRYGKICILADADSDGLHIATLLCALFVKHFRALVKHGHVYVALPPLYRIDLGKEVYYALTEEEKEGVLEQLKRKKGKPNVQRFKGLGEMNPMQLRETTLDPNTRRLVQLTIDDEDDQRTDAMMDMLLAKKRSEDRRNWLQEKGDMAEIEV
E. coli topoisomerase IV, sequence (P0AFI2 whole entry partner): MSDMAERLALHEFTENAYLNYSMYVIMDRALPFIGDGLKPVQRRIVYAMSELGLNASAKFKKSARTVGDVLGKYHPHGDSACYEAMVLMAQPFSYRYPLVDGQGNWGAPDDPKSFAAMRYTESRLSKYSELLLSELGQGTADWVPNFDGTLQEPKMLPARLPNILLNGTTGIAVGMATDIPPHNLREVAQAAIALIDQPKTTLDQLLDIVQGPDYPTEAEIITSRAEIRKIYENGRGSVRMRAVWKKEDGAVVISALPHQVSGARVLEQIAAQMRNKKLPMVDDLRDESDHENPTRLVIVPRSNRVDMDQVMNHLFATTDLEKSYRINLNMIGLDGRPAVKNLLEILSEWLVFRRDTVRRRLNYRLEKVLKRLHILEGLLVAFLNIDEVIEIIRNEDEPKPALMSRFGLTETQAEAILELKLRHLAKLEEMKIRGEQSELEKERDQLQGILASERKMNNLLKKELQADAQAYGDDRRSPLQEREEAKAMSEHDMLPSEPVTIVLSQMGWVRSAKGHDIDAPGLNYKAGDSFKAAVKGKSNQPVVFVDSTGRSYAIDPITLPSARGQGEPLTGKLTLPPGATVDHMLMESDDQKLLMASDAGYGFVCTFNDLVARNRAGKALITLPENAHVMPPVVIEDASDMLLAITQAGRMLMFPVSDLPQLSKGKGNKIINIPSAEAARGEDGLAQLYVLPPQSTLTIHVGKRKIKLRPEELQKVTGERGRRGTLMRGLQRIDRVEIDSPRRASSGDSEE

With “4,5-Dibromo-N-(2-isopropoxy-4-((pyridin-2-ylmethyl)carbamoyl)phenyl)-1H-pyrrole-2-carboxamide [Compound 15a]” as the compound, how does the “RA (residual activity) E. coli gyrase” value (E. coli DNA gyrase; residual activity of the enzyme at 1 μM of the compound) read?
The value was 100%.

For `CC(C)Oc1cc(C(=O)N[C@H](C(=O)O)C(C)C)ccc1NC(=O)c1cc(Br)c(Br)[nH]1` [Compound 8a, (4-(4,5-Dibromo-1H-pyrrole-2-carboxamido)-3-isopropoxybenzoyl)-L-valine], which inhibition at 50 µM (E. faecalis ATCC 29212) is on record?
The inhibition at 50 µM was greater than 80%.

With `Cc1[nH]c(C(=O)Nc2ccc(C(=O)N[C@@H](Cc3ccccc3)C(=O)O)cc2OC(C)C)c(Cl)c1Cl` [Compound 8d] as the compound, how does the inhibition at 50 µM (E. faecalis ATCC 29212) read?
Its inhibition at 50 µM is greater than 80%.

Which inhibition at 50 µM (E. faecalis ATCC 29212) does the source give for `Cc1[nH]c(C(=O)Nc2ccc(C(=O)N[C@@H](C)C(=O)O)cc2OC(C)C)c(Cl)c1Cl` [Compound 8e] here?
The inhibition at 50 µM was greater than 80%.

And the IC50 (E. coli topoisomerase IV)?
Its IC50 is less than 1000 nM.

With `Cc1[nH]c(C(=O)Nc2ccc(C(=O)N[C@H](C)C(=O)O)cc2OC(C)C)c(Cl)c1Cl` [Compound 8f] as the compound, how does the inhibition at 50 µM (E. faecalis ATCC 29212) read?
Its inhibition at 50 µM is greater than 80%.

With `Cc1[nH]c(C(=O)Nc2ccc(C(=O)N[C@@H](C)C(=O)O)cc2OCCNC(=O)OC(C)(C)C)c(Cl)c1Cl` [Compound 8i] as the compound, how does the remaining activity at 1 µM (E. coli topoisomerase IV) read?
The remaining activity at 1 µM was 100%.

For `COC(=O)[C@H](Cc1ccccc1)NC(=O)c1ccc(NC(=O)c2cc(Br)c(Br)[nH]2)c(OCCN)c1` [Compound 9a, (S)-2-(2-(4,5-Dibromo-1H-pyrrole-2-carboxamido)-5-((1-methoxy-1-oxo-3-phenylpropan-2-yl)carbamoyl)phenoxy)ethan-1-aminium chloride], which inhibition at 50 µM (S. aureus ATCC 25923) is on record?
The inhibition at 50 µM was greater than 80%.

What about the inhibition at 50 µM (E. faecalis ATCC 29212) of the same compound?
The inhibition at 50 µM was greater than 80%.

What does the source list for `COC(=O)[C@H](C)NC(=O)c1ccc(NC(=O)c2[nH]c(C)c(Cl)c2Cl)c(OCCN)c1.Cl` [Compound 9b]?
inhibition at 50 µM (S. aureus ATCC 25923): > 80%; inhibition at 50 µM (E. faecalis ATCC 29212): > 80%; growth inhibition of E. coli JW5503 ΔtolC (E. coli JW5503 ΔtolC): completely suppressed

For `NCCOc1cc(C(=O)NCC(=O)O)ccc1NC(=O)c1cc(Br)c(Br)[nH]1` [Compound 9c], which inhibition at 50 µM [1] is on record?
The inhibition at 50 µM was less than 36%.

Which inhibition at 50 µM [1] does the source give for `NCCOc1cc(C(=O)N[C@@H](Cc2ccccc2)C(=O)O)ccc1NC(=O)c1cc(Br)c(Br)[nH]1` [Compound 9d] here?
The inhibition at 50 µM was less than 36%.

For `Cc1[nH]c(C(=O)Nc2ccc(C(=O)N[C@@H](C)C(=O)O)cc2OCCN)c(Cl)c1Cl` [Compound 9e], which inhibition at 50 µM [1] is on record?
Its inhibition at 50 µM is less than 36%.

What about the IC50 (E. coli topoisomerase IV) of the same compound?
The IC50 was less than 1000 nM.

With `Cc1[nH]c(C(=O)Nc2ccc(C(=O)N[C@@H](C)C(=O)NN)cc2OC(C)C)c(Cl)c1Cl` [Compound 10a, (S)-3,4-Dichloro-N-(4-((1-hydrazineyl-1-oxopropan-2-yl)carbamoyl)-2-isopropoxyphenyl)-5-methyl-1H-pyrrole-2-carboxamide] as the compound, how does the inhibition at 50 µM (E. faecalis ATCC 29212) read?
The inhibition at 50 µM was greater than 80%.

What about the remaining activity at 1 µM (E. coli topoisomerase IV) of the same compound?
The remaining activity at 1 µM was 100%.

Which inhibition at 50 µM (S. aureus ATCC 25923) does the source give for `Cc1[nH]c(C(=O)Nc2ccc(C(=O)N[C@@H](C)c3n[nH]c(=O)o3)cc2OC(C)C)c(Cl)c1Cl` [Compound 11a, (S)-3,4-Dichloro-N-(2-isopropoxy-4-((1-(5-oxo-4,5-dihydro-1,3,4-oxadiazol-2-yl)ethyl)carbamoyl)phenyl)-5-methyl-1H-pyrrole-2-carboxamide] here?
Its inhibition at 50 µM is greater than 80%.

What about the inhibition at 50 µM (E. faecalis ATCC 29212) of the same compound?
Its inhibition at 50 µM is greater than 80%.

What about the MIC (E. coli (ATCC 25922); Escherichia coli, ATCC25922, read-out: MIC E. coli (ATCC 25922)) of the same compound?
The MIC was greater than 50 µM.

What about the “MIC E. coli (ATCC 25922)” value (E. coli (ATCC 25922); without PAβN) of the same compound?
Its value is “no bioactivity”.

What about the MIC (E. coli (MG1655); Escherichia coli, MG1655, read-out: MIC E. coli (MG1655)) of the same compound?
Its MIC is greater than 50 µM.

What about the “MIC E. coli (MG1655)” value (E. coli (MG1655); without PAβN) of the same compound?
The value was “no bioactivity”.

And the MIC (E. coli (BW 25113); Escherichia coli, read-out: MIC E. coli (BW 25113))?
The MIC was greater than 50 µM.

And the “MIC E. coli (BW 25113)” value (E. coli (BW 25113); without PAβN)?
Its value is “no bioactivity”.

With `Cc1[nH]c(C(=O)Nc2ccc(C(=O)N[C@@H](C)c3n[nH]c(=O)o3)cc2OCCNC(=O)OC(C)(C)C)c(Cl)c1Cl` [Compound 11b] as the compound, how does the inhibition at 50 µM (E. faecalis ATCC 29212) read?
The inhibition at 50 µM was greater than 80%.

Which “growth inhibition of E. faecalis” value (E. faecalis ATCC 29212; inhibitor concentration 50 μM) does the source give for `Cc1[nH]c(C(=O)Nc2ccc(C(=O)N[C@@H](C)c3n[nH]c(=O)o3)cc2OCCN)c(Cl)c1Cl` [Compound 12, (S)-2-(2-(3,4-Dichloro-5-methyl-1H-pyrrole-2-carboxamido)-5-((1-(5-oxo-4,5-dihydro-1,3,4-oxadiazol-2-yl)ethyl)carbamoyl)phenoxy)ethan-1-aminium chloride] here?
The value was “no growth inhibition”.

And the IC50 (E. coli topoisomerase IV)?
The IC50 was less than 1000 nM.

For `O=C(O)CNC(=O)c1ccc(NC(=O)c2cc(Br)c(Br)[nH]2)cc1OCc1ccccc1` [Compound 23a, (2-(Benzyloxy)-4-(4,5-dibromo-1H-pyrrole-2-carboxamido)benzoyl)glycine], which “fold more active on E. coli gyrase than isopropoxy analogue 23c” value (E. coli DNA gyrase; ratio of IC50 values) is on record?
The value was 4 fold.

And the IC50 (E. coli topoisomerase IV)?
The IC50 was 42000 ± 11000 nM.

For `CC(C)Oc1cc(NC(=O)c2cc(Br)c(Br)[nH]2)ccc1C(=O)NCC(=O)O` [Compound 23c], which remaining activity at 1 µM (E. coli topoisomerase IV) is on record?
The remaining activity at 1 µM was 100%.

With `Cc1[nH]c(C(=O)Nc2ccc(C(=O)NCC(=O)O)c(OC(C)C)c2)c(Cl)c1Cl` [Compound 23d] as the compound, how does the remaining activity at 1 µM (E. coli topoisomerase IV) read?
The remaining activity at 1 µM was 100%.

With `COc1cc([C@@H]2c3cc4c(cc3[C@@H](O[C@@H]3O[C@@H]5CO[C@@H](C)O[C@H]5[C@H](O)[C@H]3O)[C@H]3COC(=O)[C@H]23)OCO4)cc(OC)c1O` [Etoposide] as the compound, how does the IC50 (HepG2 cells) read?
Its IC50 is 30.2 µM.

And the IC50 (HUVEC cells)?
Its IC50 is 1250 nM.
